According to the METLIN SMRT retention time set (Domingo-Almenara et al. 2019):

Assay: gradient 5% acetonitrile 3 min, to 50% in 2 min, to 85% in 15 min, held 3 min, 100 µL/min
Settings: column: Zorbax Extend-C18 2.1 x 50 mm; eluents: water / acetonitrile, 0.1% formic acid
Procedure, shortened: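 Each retention time is based on an adduct peak selected computationally and verified by manual inspection. Measurements used HPLC–quadrupole time-of-flight mass spectrometry in positive and negative ionization mode on mixtures of ~100 pure standards. Chromatography ran on a Zorbax Extend-C18 column (2.1 × 50 mm, 1.8 μm) at 100 μL/min with water and acetonitrile, each containing 0.1% formic acid, and dead and dwell volumes of 40 μL and 900 μL.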

| SMILES | RP-LC retention time |
| --- | --- |
| O=C(Nc1ccc(N2CCOCC2)cc1)c1cn2c(n1)COCC2 | 600 s |
| CCOc1cccc(-c2noc(Cn3c(=O)n(CCCOC)c(=O)c4ccccc43)n2)c1 | 1040 s |
| Nc1cc(C2CCN(S(=O)(=O)c3cccc(F)c3)CC2)no1 | 755 s |
| O=C(Cc1ccc(Cl)cc1)N1CCc2nc[nH]c2C1 | 590 s |
| COc1ccc(N2CCN(C(=O)CCC(=O)N3CCCn4nc(-c5cccn5C)cc43)CC2)cc1 | 711 s |
| N#Cc1cccc(NC(=O)Cn2cccc2-c2nc(-c3ccc4c(c3)OCO4)no2)c1 | 924 s |
| Cc1cc2nn(CC(=O)N3CCCC3)c(=O)n2c(Nc2ccc(F)c(C)c2)n1 | 643 s |
| COc1cccc(CC(=O)N2CCN3CCS(=O)(=O)N(C4CC4)C(=O)C3C2)c1 (configuration not stated) | 747 s |
| Cc1ccc(C)c(N2CCN(c3ccc4cc(S(=O)(=O)N5CCCCC5)ccc4n3)CC2)c1 | 1360 s |
| CC(=O)c1ccc(S(=O)(=O)N(Cc2cccs2)Cc2cccn2C)cc1 | 983 s |
| CCCN1C(=O)COc2ccc(-c3noc(-c4ccc(N(C)C)cc4)n3)cc21 | 1280 s |
| CCSc1nnc(-c2nn(C)c3c2CN(S(=O)(=O)c2ccc(OC)cc2)CC3)n1CC | 905 s |
| CCn1c(=O)c(N2CCCC(C(=O)N3CCN(c4cccc(Cl)c4)CC3)C2)nc2ccccc21 (configuration not stated) | 1240 s |
| Cc1[nH]c2ccc(-c3nnc(SC(C)C(=O)Nc4ccc5c(c4)OCCO5)o3)cc2c1C (configuration not stated) | 936 s |
| Cc1nn(CC(=O)NCCCN2CCCCC2)c(=O)c2nc(-c3ccccc3)sc12 | 627 s |
| CCSc1nc(NCC(C)C)c2cnn(CCNC(=O)c3cn(C)nc3OC)c2n1 | 749 s |
| CC(=O)Nc1ccc(S(=O)(=O)Nc2ccc3c(c2)CCC(=O)N3C)cc1 | 604 s |
| COc1cccc(-c2nnc(SCC(=O)NCc3ccco3)n2-c2ccccc2)c1 | 739 s |

Now from value to molecule:

| RP-LC retention time | SMILES |
| --- | --- |
| 551 s | CCN1CCN(c2c(C(=O)c3ccc(OC)cc3)cnc3cc4c(cc23)OCCO4)CC1 |
| 798 s | CCOC(=O)CSc1nnc(NC(=O)COc2ccccc2)s1 |
| 668 s | CCOc1ccc(Br)cc1CNc1ccc2[nH]c(=O)[nH]c2c1 |
| 610 s | CCCc1cc(N2CCN(C(=O)c3ccc(C#N)cc3)CC2)nc2nnc(C)n12 |
| 783 s | O=C(O)C1CCCN(CCC=C(c2ccccc2)c2ccccc2)C1 (configuration not stated) |
| 858 s | CC1CCN(C(=O)c2cn(-c3cc(N4CCSCC4)ncn3)cn2)CC1 |
| 620 s | CCCNC(=O)C1CCCN(c2ccc(SCC(=O)Nc3ccccc3F)nn2)C1 (configuration not stated) |
| 977 s | Cc1cccc(NC(=O)N2CCCC2c2nc(-c3ccccc3)no2)c1C (configuration not stated) |
| 651 s | O=C(NCCCc1ccccc1)C1(CCO)CCN(c2ncccn2)C1 (configuration not stated) |
| 854 s | COc1ccc(OC)c2sc(NC(=O)CS(=O)(=O)c3ccc(Cl)cc3)nc12 |
| 514 s | Cc1ccc(=O)n(CC(=O)N2CCOCC2)n1 |
| 616 s | O=C(Cc1nnc2c(-c3nc(C4CC4)no3)cccn12)N1CCCCC1 |
| 674 s | CC(C)CC(=O)N1c2nc(-c3ccccc3)nn2C2(CCCCC2)[C@@H]2CCCC[C@@H]21 |
| 564 s | Cc1cc(NCc2ccccn2)nc(-n2cc([N+](=O)[O-])cn2)n1 |
| 743 s | CCCNC(=O)C1CCCN(c2nc(C)nc3onc(CC)c23)C1 (configuration not stated) |
| 800 s | CCOC(=O)c1[nH]c(C)c(CCC(=O)N2CCC(C(=O)NCc3ccccc3OC)CC2)c1C |
| 1060 s | CCc1ccc(OCc2nc(CCN(C)C(=O)Nc3cc(OC)ccc3OC)no2)cc1 |
| 575 s | COc1ccc(OC)c(COCC(O)CN2CCc3cc(OC)c(OC)cc3C2)c1 (configuration not stated) |
| 960 s | Cn1cc(S(=O)(=O)N2CCCCC2)cc1C(=O)Nc1ccccc1 |
